These results are taken from ChEMBL document CHEMBL2429764, “Synthesis and cytotoxic activity of novel hybrid compounds between 2-alkylbenzofuran and imidazole” (Med Chem Res, 2013).

The IC50 is the concentration that gives 50% inhibition. Higher therefore signals weaker potency.

A value given as a limit tells only on which side of the number the result lay.

Holding throughout (format): functional, cell-based
For one assay, the system named is HL-60. Briefly: Cytotoxicity against human HL60 cells after 48 hrs by MTT assay. The following applies: HL-60, 48 h. Background: Tetrazolium dyes change colour on reduction, which living cells bring about.
The next assay concerns SMMC-7721. Put plainly: Cytotoxicity against human SMMC7721 cells after 48 hrs by MTT assay. Particulars: SMMC-7721, 48 h.
Another assay concerns SW480. Briefly: Cytotoxicity against human SW480 cells after 48 hrs by MTT assay. Particulars: SW480, 48 h.
The next assay deals with MCF7. Put plainly: Cytotoxicity against human MCF7 cells after 48 hrs by MTT assay. The following applies: MCF7, 48 h.
The subject of the next assay is A549. Briefly: Cytotoxicity against human A549 cells after 48 hrs by MTT assay. Particulars: A549, 48 h.

For the molecule `CCc1n(Cc2cc3ccccc3o2)cc[n+]1C(C(=O)c1ccccc1)c1ccccc1` (stereo not given), the IC50 with HL-60 amounted to 2.25 µM; in the assay with SMMC-7721, 6.16 µM; with SW480 it was 7.15 µM; in the assay with MCF7, 3.3 µM; in the assay on A549, 10.3 µM.
Take `Cc1n(Cc2cc3ccccc3o2)cc[n+]1CC(=O)c1ccccc1`: the IC50 in the assay on HL-60, in the assay on SMMC-7721, in the assay on SW480, in the assay with MCF7 and with A549 was more than 40 µM in each case.
As for `O=C(C[n+]1ccn(Cc2cc3ccccc3o2)c1)c1ccc2ccccc2c1`, the IC50 with HL-60 is 6.27 µM; in the assay on SMMC-7721, 8.08 µM; with SW480, 17.1 µM; in the assay on MCF7, 12.7 µM; with A549, 9.95 µM.
For the molecule `CCc1n(Cc2cc3ccccc3o2)cc[n+]1CC(=O)c1ccc(O)cc1`, the 50% inhibitory concentration (IC50) in the assay on HL-60, in the assay with SMMC-7721, with SW480, in the assay with MCF7 and with A549 was more than 40 µM each time.
As to `O=C(C[n+]1cn(Cc2cc3ccccc3o2)c2ccccc21)c1ccccc1`, the concentration for half-maximal inhibition (IC50) in the assay with HL-60, in the assay on SMMC-7721, with SW480, in the assay with MCF7 and in the assay on A549 was more than 40 µM each time.
For `COc1ccc(C(=O)C[n+]2ccn(Cc3cc4ccccc4o3)c2C)cc1`, the 50% inhibitory concentration (IC50) was determined as 0.78 µM in the assay with HL-60; 11.6 µM in the assay with SMMC-7721; 0.28 µM in the assay with SW480; 1.44 µM in the assay on MCF7; 0.37 µM with A549.
In the case of `O=C(C[n+]1cn(Cc2cc3ccccc3o2)c2ccccc21)c1ccc2ccccc2c1`, the IC50 was 3.62 µM with HL-60; 6.44 µM with SMMC-7721; 17.1 µM in the assay on SW480; 3.72 µM in the assay on MCF7; 6.73 µM in the assay with A549.
Take `COc1ccc(C(=O)C[n+]2ccn(Cc3cc4ccccc4o3)c2)cc1`: the IC50 with HL-60, in the assay with SMMC-7721, with SW480, in the assay with MCF7 and in the assay on A549 was more than 40 µM throughout.
Consider `CCc1n(Cc2cc3ccccc3o2)cc[n+]1CC(=O)c1ccc2ccccc2c1`, for which the concentration for half-maximal inhibition (IC50) in the assay with HL-60 stood at 1.45 µM; in the assay with SMMC-7721, 4.26 µM; in the assay on SW480, 1.69 µM; in the assay on MCF7, 2.59 µM; in the assay with A549, 7.44 µM.
Consider `Cc1n(Cc2cc3ccccc3o2)cc[n+]1Cc1ccccc1Br`, for which the IC50 in the assay on HL-60 was 1.28 µM; with SMMC-7721, 10.2 µM; in the assay with SW480, 3.89 µM; in the assay on MCF7, 2.24 µM; with A549, 2.96 µM.
With `O=C(c1ccccc1)C(c1ccccc1)[n+]1cn(Cc2cc3ccccc3o2)c2ccccc21` (stereo not given), the IC50 in the assay with HL-60 is 6.77 µM; with SMMC-7721, 14.8 µM; with SW480 it was 9.75 µM; in the assay with MCF7, 9.83 µM; in the assay with A549 it was 12.6 µM.
Take `Cc1n(Cc2cc3ccccc3o2)cc[n+]1C(C(=O)c1ccccc1)c1ccccc1` (stereo not given): the IC50 turned out to be 4.44 µM in the assay on HL-60; 11.3 µM with SMMC-7721; 9.96 µM in the assay with SW480; 6.79 µM in the assay with MCF7; 14.8 µM in the assay on A549.
`Cc1n(Cc2cc3ccccc3o2)cc[n+]1CC(=O)c1ccc(O)cc1`: the IC50 in the assay on HL-60, in the assay with SMMC-7721, in the assay with SW480, in the assay with MCF7 and in the assay with A549 was more than 40 µM in each case.
With `COc1ccc(C(=O)C[n+]2cn(Cc3cc4ccccc4o3)c3ccccc32)cc1`, the IC50 worked out at 3.91 µM with HL-60; 13.6 µM with SMMC-7721; 23.1 µM with SW480; 14.6 µM in the assay with MCF7; 7.18 µM in the assay with A549.
With `O=C(C[n+]1cn(Cc2cc3ccccc3o2)c2ccccc21)c1ccc(Br)cc1`, the 50% inhibitory concentration (IC50) in the assay on HL-60 worked out at 1.69 µM; in the assay on SMMC-7721, 3.58 µM; with SW480 it was 4.2 µM; in the assay with MCF7 it was 2.46 µM; in the assay on A549, 2.54 µM.
The matching figures for `CCc1nccn1Cc1cc2ccccc2o1`: more than 40 µM, more than 40 µM, more than 40 µM, more than 40 µM and more than 40 µM.
Consider `C=CC[n+]1ccn(Cc2cc3ccccc3o2)c1`, for which the IC50 with HL-60, with SMMC-7721, in the assay with SW480, with MCF7 and in the assay with A549 was more than 40 µM throughout.
For the molecule `CCc1n(Cc2cc3ccccc3o2)cc[n+]1CC(=O)c1ccc(Br)cc1`, the concentration for half-maximal inhibition (IC50) turned out to be 1.87 µM in the assay with HL-60; 7.51 µM in the assay with SMMC-7721; 1.34 µM in the assay on SW480; 4.47 µM in the assay on MCF7; 25.7 µM in the assay with A549.
For `CCCC[n+]1cn(Cc2cc3ccccc3o2)c2ccccc21`, in that order: more than 40 µM, more than 40 µM, more than 40 µM, more than 40 µM and more than 40 µM.
The matching figures for `Cc1n(Cc2cc3ccccc3o2)cc[n+]1CC(=O)c1ccc2ccccc2c1`: 1.04 µM, 3.5 µM, 1.03 µM, 1.09 µM and 4.97 µM.
The matching figures for `CCc1n(Cc2cc3ccccc3o2)cc[n+]1CC(=O)c1ccc(OC)cc1`: 0.4 µM, 8.43 µM, 1.02 µM, 3.05 µM and 1.13 µM.
With `O=C(C[n+]1ccn(Cc2cc3ccccc3o2)c1)c1ccc(O)cc1`, the 50% inhibitory concentration (IC50) in the assay on HL-60, in the assay on SMMC-7721, with SW480, in the assay with MCF7 and in the assay on A549 was more than 40 µM throughout.
`C=CC[n+]1ccn(Cc2cc3ccccc3o2)c1C`: the half-inhibitory concentration (IC50) in the assay on HL-60, in the assay on SMMC-7721, in the assay with SW480, with MCF7 and in the assay on A549 was more than 40 µM in each case.
Take `Brc1ccccc1C[n+]1ccn(Cc2cc3ccccc3o2)c1`: the concentration for half-maximal inhibition (IC50) in the assay with HL-60, in the assay on SMMC-7721, in the assay with SW480, with MCF7 and in the assay on A549 was more than 40 µM each time.
As to `O=C(C[n+]1ccn(Cc2cc3ccccc3o2)c1)c1ccc(Br)cc1`, the 50% inhibitory concentration (IC50) in the assay with HL-60 is 10.3 µM; in the assay on SMMC-7721, 14.3 µM; with SW480, more than 40 µM; in the assay on MCF7, 18 µM; in the assay on A549, 12.2 µM.
Turning to `CCc1n(Cc2cc3ccccc3o2)cc[n+]1CC(=O)c1ccccc1`, the half-maximal inhibitory concentration (IC50) in the assay with HL-60, in the assay on SMMC-7721, with SW480, in the assay on MCF7 and in the assay on A549 was more than 40 µM throughout.
For `c1ccc2oc(Cn3cnc4ccccc43)cc2c1`, the IC50 in the assay on HL-60, in the assay with SMMC-7721, in the assay with SW480, with MCF7 and in the assay with A549 was more than 40 µM throughout.
On to `CCCC[n+]1ccn(Cc2cc3ccccc3o2)c1`, for which the half-inhibitory concentration (IC50) in the assay with HL-60, in the assay with SMMC-7721, in the assay on SW480, in the assay with MCF7 and with A549 was more than 40 µM throughout.
Turning to `Cc1n(Cc2cc3ccccc3o2)cc[n+]1CC(=O)c1ccc(Br)cc1`, the IC50 in the assay with HL-60, in the assay on SMMC-7721, with SW480, in the assay with MCF7 and in the assay on A549 was more than 40 µM throughout.
In the case of `O=C(C[n+]1cn(Cc2cc3ccccc3o2)c2ccccc21)c1ccc(O)cc1`, the IC50 with HL-60, in the assay on SMMC-7721, in the assay with SW480, in the assay on MCF7 and in the assay with A549 was more than 40 µM throughout.
As for `Cc1nccn1Cc1cc2ccccc2o1`, the IC50 in the assay on HL-60, with SMMC-7721, in the assay on SW480, with MCF7 and in the assay on A549 was more than 40 µM each time.
Turning to `Brc1ccccc1C[n+]1cn(Cc2cc3ccccc3o2)c2ccccc21`, the IC50 in the assay with HL-60 stood at 2.48 µM; with SMMC-7721, 6.83 µM; with SW480, 14.7 µM; in the assay on MCF7 it was 7.48 µM; with A549 it was 2.63 µM.
For `O=C(C[n+]1ccn(Cc2cc3ccccc3o2)c1)c1ccccc1`, in that order: more than 40 µM, more than 40 µM, more than 40 µM, more than 40 µM and more than 40 µM.
As to `c1ccc2oc(Cn3ccnc3)cc2c1`, the half-maximal inhibitory concentration (IC50) with HL-60, in the assay on SMMC-7721, with SW480, in the assay on MCF7 and in the assay on A549 was more than 40 µM in each case.
